Patent US11484516B2, “Agents for increasing meibomian gland lipid secretion” (Azura Ophthalmics Ltd., priority 2017, dated 2022)

Tests used:
HaCaT cells = assay: HaCaT turnover rate determination (BrdU assay); type: cell-based; conditions: BrdU incorporation, non-toxic concentrations
Method: (§1) Dose response and time course analyses was performed initially in order to evaluate the impact of bucillamine on HaCaT cell viability. Then, selected non-toxic concentrations were further evaluated by BrdU incorporation to determine the ability of the test item to reduce the keratinocyte proliferation rate. In addition, the ability of the test items to reduce thiol moieties, and therefore loosen the blockage of the meibomian gland, was tested on stratum corneum obtained from human skin.
(§2) The cells were incubated without or with six concentrations of the test item, for 24, 48 and 72 hr at 37° C. with 5% CO2 under humidified conditions. At the end of each incubation period, cell viability was measured by MTT assay. A blank control was subtracted from all the measurements. HaCaT Turnover Rate Determination The proliferation rate of HaCaT cells upon treatments with the test item was examined by using the BrdU assay. Colorimetric evaluation of the turnover rate was recorded by ELISA reader. Ex Vivo Assessment in the Human Skin Model System The human skin organ culture was obtained from healthy patient undergoing plastic surgery. The study was initiated the day of surgery.

[1] = test system: 3D Sebocytes culture (human cell line SEBO662); assay: Lipid accumulation (Oil-red-O staining) in 3D model culture of Sebocytes; type: cell-based; conditions: 14 days incubation, lipid droplet surface area
Source text: Since secretory cells (meibocytes) of meibomian glands, share similarities with that of the secretory cells (sebocytes) of sebaceous glands, as can be validated from their similar structure, similar function and their joint embryologic development (Knop 2011_IOVS) the effect of Thiol containing Lipids on lipid production can be evaluated in a 3D model culture of Sebocytes. See also: Barrault 2012, Immortalized sebocytes can spontaneously differentiate into a sebaceous-like phenotype when cultured as a 3D epithelium, Exp. Derm, 21:299-319
The effect of different compounds on lipid synthesis was evaluated, in a 3D model culture of Sebocytes. Drug candidates were compounds comprising a thiol group. Selenium disulfide (SeS2 dispersed in CarboxymethylCellulose—CMC) as a positive control. Since Sebocytes differentiation is associated with increased lipid synthesis and accumulation, evaluation of proliferation and differentiation was done by quantifying lipid accumulation in the 3D Sebocytes culture (human cell line—SEBO662). Lipid accumulation was evaluated by lipid staining with Oil red staining.
Sebocytes SEBO662 were cultured into a three dimension (3D) epithelium and differentiated to a sebaceous-like phenotype. The Sebocytes were treated or not (control) with the test compounds and incubated for 14 days. All experiments were performed 3 times. After incubation, tissues were snap-frozen. Formaldehyde-fixed cryo sections were stained using an Oil-red-O solution and counterstained using haematoxylin. For each test condition, the sections were observed using a light microscope equipped with a camera. Five pictures were taken per replicate, making 15 values per treatment condition. The lipid content in each sample was quantified by calculation of the lipid droplet surface area. Quantitative comparison of all data points between lipid's droplet surface area of tested compounds versus control was performed

[2] = Ex vivo free thiol determination in the human skin model system; conditions: non-toxic concentrations
Method: as §1, §2
To isolate the free thiol from the mixture of the samples, samples were incubated with equal volume of TCA (trichloroacetic acid) for 5 min. […] The pellets were evaluated.

For `CC(C)(S)C(=O)N[C@@H](CS)C(=O)O` [Bucillamine, bucillamine], the “keratostatic efficacy: turnover rate of the keratinocytes cells” value (HaCaT cells) was “reducing the turnover rate”, the “lipid accumulation in the upper region of the 3D Sebocytes (% of the control)” value ([1]; 0.01 μM) was 115 % of the control and the “lipid accumulation in the upper region of the 3D Sebocytes (% of the control)” value ([1]; 0.1 μM) was 172 % of the control. The “lipid accumulation in the upper region of the 3D Sebocytes (% of the control)” value ([1]; 1 μM) was 214 % of the control and the “increase of free thiol moieties (keratolytic efficacy)” value [2] was “approx. 6 fold”.
For `S=[Se]=S` [Selenium disulfide], the “lipid accumulation in the upper region of the 3D Sebocytes (% of the control)” value ([1]; 0.01 μM) was 282 % of the control and the “lipid accumulation in the upper region of the 3D Sebocytes (% of the control)” value ([1]; 0.1 μM) was 348 % of the control.
